The source of these data is patent US11312726B2, “Thienodiazepine derivatives and application thereof” (priority 2017, dated 2022).

One assay addresses BRD4-BD1 (Homo sapiens (Human), UniProt O60885). The assay is described as follows: BRD4 biochemical activity test (TR-FRET), BD1. To be noted: read-out: BRD4 Binding (BD1), IC50. An excerpt:
(§1) BRD4 Biochemical Activity Test
(§2) 1) BRD4-BD1 and BRD4-BD2 proteins of BPS Company, polypeptide of ANASPEC Company, and test reagent of PerkinElmer Company were used in the experiments;
(§3) 2) The TR-FRET experimental principle was used in the experiment to screen compounds.
(§4) 3) Relevant control compounds
(§5) 1) Preparation of the Compound Plate:
(§6) Preparation of the compound plate in the experiment was achieved by Echo:
(§7) 2) Preparation of Reaction Reagents:
(§8) Relevant reaction reagents should be prepared on the day of the experiment:
(§9) a) Formulation of 1× assay buffer;
(§10) b) Formulation of 3× component solution for the experiment: […]
(§11) 1. The reagent was taken out and placed on ice to naturally melt for later use;
(§12) 2. “Solution A” (protein solution), “solution B” (polypeptide solution), and “solution C” (test reagent solution) used in the experiment were formulated with the 1× assay buffer, and during the formation of the 3× solution from the components used in the experiment reaction system, the amounts of solutions A, B and C must be enough for the required amounts in the experiment.
(§13) 3) Experimental Operation Steps:
(§14) The experiment plate was a plate that contained a gradient concentration of the compound and a corresponding DMSO solution and was prepared with ECHO before the experiment:
(§15) a) The experiment plate was taken out, and 5 μL/well of “solution A” (protein solution) was added to columns 2-23 of the experiment plate, then 5 μL/well of 1× assay buffer was added to columns 1 and 24 of the experiment plate, and columns 1 and 24 were used as Min control in the experiment system;
(§16) b) Centrifugation at 1000 rpm was carried out for 30 seconds;
(§17) c) The plate was incubated at 23° C. for 20 minutes;
(§18) d) After 20 minutes of incubation, 5 μL/well of “solution B” (polypeptide solution) was added to columns 1-24 of the experiment plate;
(§19) e) Centrifugation at 1000 rpm was carried out for 30 seconds;
(§20) f) The plate was incubated at 23° C. for 20 minutes;
(§21) g) After 20 minutes of incubation, 5 μL/well of “solution C” (test reagent solution) was added to columns 1-24 of the experiment plate;
(§22) h) Centrifugation at 1000 rpm was carried out for 30 seconds;
(§23) i) The plate was incubated at 23° C. for 40 minutes;
(§24) j) The experiment plate was placed on EnVision to read the plate.
(§25) a) The corresponding Max control and Min control of each experiment plate were used to convert to the Z′ value of the experiment plate, and the Z′ value of each plate was ensured to be >0.5;
(§26) b) The IC50 value was calculated from the signal of the control compound by XLFIT5, and ensured to be maintained within 3 times of the average value of historical data.

A further assay deals with BRD4-BD2 (Homo sapiens (Human), UniProt O60885). Briefly: BRD4 biochemical activity test (TR-FRET), BD2. To be noted: read-out: BRD4 Binding (BD2), IC50.
Description: as §1, §2, §3, §4, §5, §6, §7, §8, §9, §10, §11, §12, §13, §14, §15, §16, §17, §18, §19, §20, §21, §22, §23, §24, §25, §26

As to `Cc1sc2c(c1C)C(c1ccc(Cl)cc1)=N[C@@H](CC(=O)Nc1ccc3c(c1)C(=O)NC3)c1nnc(C)n1-2` [Compound 1], the IC50 on BRD4-BD1 was 65 nM; on BRD4-BD2, 11 nM.
On the same counts, the results for `Cc1sc2c(c1C)C(c1ccc(Cl)cc1)=N[C@@H](CC(=O)Nc1ccc3c(c1)CNC3=O)c1nnc(C)n1-2` [Compound 2] are 49 nM and 10 nM.
On the same counts, the results for `Cc1sc2c(c1C)C(c1ccc(Cl)cc1)=N[C@@H](CC(=O)Nc1ccn3c(=O)c(O)cnc3c1)c1nnc(C)n1-2` [Compound 5] are 83 nM and 9 nM.
On to `Cc1sc2c(c1C)C(c1ccc(Cl)cc1)=N[C@@H](CC(=O)Nc1n[nH]c(=O)c3ccccc13)c1nnc(C)n1-2` [Compound 8], for which the values for the IC50 at BRD4-BD1 and at BRD4-BD2 were 51 nM and 11 nM, respectively.
As to `Cc1sc2c(c1C)C(c1ccc(Cl)cc1)=N[C@@H](CC(=O)Nc1ccc3c(c1)C1(CC1)C(=O)N3)c1nnc(C)n1-2` [Compound 9], the concentration for half-maximal inhibition (IC50) on BRD4-BD1 came to 49 nM; at BRD4-BD2 it was 11 nM.
Turning to `Cc1sc2c(c1C)C(c1ccc(Cl)cc1)=N[C@@H](CC(=O)Nc1ccc3c(c1)C(=O)NC31CC1)c1nnc(C)n1-2` [Compound 10], the 50% inhibitory concentration (IC50) on BRD4-BD1 came out at 81 nM; on BRD4-BD2, 16 nM.
On the same counts, the results for `Cc1sc2c(c1C)C(c1ccc(Cl)cc1)=N[C@@H](CC(=O)Nc1ccc3c(c1)C1(CC1)NC3=O)c1nnc(C)n1-2` [Compound 12] are 40 nM and 12 nM.
In the same order, the values of `Cc1sc2c(c1C)C(c1ccc(Cl)cc1)=N[C@@H](CC(=O)Nc1ccc3c(c1)COC3)c1nnc(C)n1-2` [Compound 16] are 60 nM and 12 nM.
On the same counts, the results for `CC(=O)N1Cc2ccc(NC(=O)C[C@@H]3N=C(c4ccc(Cl)cc4)c4c(sc(C)c4C)-n4c(C)nnc43)cc2C1` [Compound 17] are 24 nM and 7 nM.
Regarding `Cc1sc2c(c1C)C(c1ccc(Cl)cc1)=N[C@@H](CC(=O)Nc1ccc3c(c1)CNC3)c1nnc(C)n1-2` [Compound 18], the IC50 is 23 nM at BRD4-BD1 and 8 nM on BRD4-BD2.
In the same order, the values of `Cc1sc2c(c1C)C(c1ccc(Cl)cc1)=N[C@@H](CC(=O)Nc1ccc3c(c1)CN(S(C)(=O)=O)C3)c1nnc(C)n1-2` [Compound 19] are 49 nM and 8 nM.
In the same order, the values of `Cc1sc2c(c1C)C(c1ccc(Cl)cc1)=N[C@@H](CC(=O)Nc1ccc3c(c1)CN(C(N)=O)C3)c1nnc(C)n1-2` [Compound 20] are 169 nM and 11 nM.
On the same counts, the results for `Cc1sc2c(c1C)C(c1ccc(Cl)cc1)=N[C@@H](CC(=O)Nc1ccc3c(c1)CC(F)(F)C3)c1nnc(C)n1-2` [Compound 21] are 522 nM and 34 nM.
Take `Cc1sc2c(c1C)C(c1ccc(Cl)cc1)=N[C@@H](CC(=O)Nc1ccc3c(c1)C(=O)SC3)c1nnc(C)n1-2` [Compound 22]: the IC50 on BRD4-BD1 was found to be 199 nM; at BRD4-BD2, 10 nM.
On the same counts, the results for `Cc1sc2c(c1C)C(c1ccc(Cl)cc1)=N[C@@H](CC(=O)Nc1ccc3c(c1)C[C@@H](F)C3)c1nnc(C)n1-2` [Compound 24] are 206 nM and 17 nM.
`Cc1sc2c(c1C)C(c1ccc(Cl)cc1)=N[C@@H](CC(=O)Nc1ccc3c(c1C)COC3)c1nnc(C)n1-2` [Compound 25]: the IC50 at BRD4-BD1 worked out at 79 nM; at BRD4-BD2, 20 nM.
On the same counts, the results for `Cc1cc2c(cc1NC(=O)C[C@@H]1N=C(c3ccc(Cl)cc3)c3c(sc(C)c3C)-n3c(C)nnc31)COC2` [Compound 26] are 112 nM and 30 nM.
On the same counts, the results for `Cc1sc2c(c1C)C(c1ccc(Cl)cc1)=N[C@@H](CC(=O)Nc1ccc3c(c1)CC1(COC1)C3)c1nnc(C)n1-2` [Compound 27] are 55 nM and 9 nM.
On the same counts, the results for `Cc1sc2c(c1C)C(c1ccc(Cl)cc1)=N[C@@H](CC(=O)Nc1cc3c(cc1Cl)COC3)c1nnc(C)n1-2` [Compound 28] are 60 nM and 15 nM.
Consider `Cc1sc2c(c1C)C(c1ccc(Cl)cc1)=N[C@@H](CC(=O)Nc1cc3c(cc1F)COC3)c1nnc(C)n1-2` [Compound 29], for which the figures for the IC50 at BRD4-BD1 and at BRD4-BD2 were 74 nM and 16 nM, respectively.
On the same counts, the results for `Cc1sc2c(c1C)C(c1ccc(Cl)cc1)=N[C@@H](CC(=O)Nc1ccc3c(c1)C(=O)OC3)c1nnc(C)n1-2` [Compound 30] are 51 nM and 9 nM.
In the same order, the values of `Cc1sc2c(c1C)C(c1ccc(Cl)cc1)=N[C@@H](CC(=O)Nc1ccc3c(c1)OCCOCCOCCO3)c1nnc(C)n1-2` [Compound 31] are 37 nM and 5 nM.
On the same counts, the results for `Cc1sc2c(c1C)C(c1ccc(Cl)cc1)=N[C@@H](CC(=O)Nc1ccc3nonc3c1)c1nnc(C)n1-2` [Compound 33] are 248 nM and 19 nM.
Regarding `Cc1sc2c(c1C)C(c1ccc(Cl)cc1)=N[C@@H](CC(=O)Nc1ccc3c(c1)[C@H]1CC[C@@H]3O1)c1nnc(C)n1-2` [Compound 35], the IC50 on BRD4-BD1 was 155 nM; on BRD4-BD2, 12 nM.
On the same counts, the results for `Cc1sc2c(c1C)C(c1ccc(Cl)cc1)=N[C@@H](CC(=O)Nc1ccc3c(c1)C(=O)NC3=O)c1nnc(C)n1-2` [Compound 36] are 126 nM and 10 nM.
On the same counts, the results for `Cc1sc2c(c1C)C(c1ccc(Cl)cc1)=N[C@@H](CC(=O)Nc1ccc3c(c1)C(C)(C)OC3=O)c1nnc(C)n1-2` [Compound 37] are 148 nM and 11 nM.
